Measured values published in PMC2375871, “Regulation of 5'-adenosine monophosphate deaminase in the freeze tolerant wood frog, Rana sylvatica” (BMC Biochemistry, 2008).

What was measured:
Assay type in all cases: biochemical, Lithobates sylvaticus
[1] = tested on: T1, Free AMPD (wood frog skeletal muscle, control frogs); experiment: AMP deaminase activity, […] nm absorbance, Hill fit; settings: after Sephadex G-50 desalting, Hill coefficient 2.37, pH 7.2, 25°C, read-out: After spun columns
T1 construct: gene AMPD1; native, soluble (free) form in skeletal muscle extract of 5°C-acclimated control frogs, Sephadex G-50 desalted, not purified

[2] = tested on: T2, Bound AMPD (wood frog skeletal muscle, control frogs); experiment: AMP deaminase activity, glutamate dehydrogenase-coupled, NADH […] nm, Hill fit; settings: Hill coefficient 1.03, pH 7.2, 25°C, no glucose, bound enzyme, read-out: S0.5 AMP
T2 construct: gene AMPD1; low phosphate form; not purified

[3] = tested on: T3, Bound AMPD (wood frog skeletal muscle, frozen frogs); experiment: as above; settings: Hill coefficient 1.12, pH 7.2, 25°C, no glucose, bound enzyme, read-out: S0.5 AMP
T3 construct: gene AMPD1; high phosphate form (sites not known); not purified

[4] = biological target: T3, Bound AMPD (wood frog skeletal muscle, frozen frogs); experiment: AMP deaminase activity, glutamate dehydrogenase-coupled, NADH […] nm; settings: activation constant (half-maximal activation, 3.42-fold), as Mg·ADP, 0.5 mM AMP, pH 7.2, 25°C, bound enzyme, allosteric
[5] = biological target: T2, Bound AMPD (wood frog skeletal muscle, control frogs); experiment: as above; settings: activation constant (half-maximal activation, 1.25-fold), as Mg·ADP, 0.5 mM AMP, pH 7.2, 25°C, bound enzyme, allosteric
[6] = biological target: T1, Free AMPD (wood frog skeletal muscle, control frogs); experiment: AMP deaminase activity, […] nm absorbance; settings: 0.5 mM AMP, pH 7.2, 25°C, allosteric
[7] = biological target: T3, Bound AMPD (wood frog skeletal muscle, frozen frogs); experiment: AMP deaminase activity, glutamate dehydrogenase-coupled, NADH […] nm; settings: as Mg·GTP, 0.5 mM AMP, pH 7.2, 25°C, bound enzyme, allosteric
[8] = biological target: T1, Free AMPD (wood frog skeletal muscle, control frogs); experiment: AMP deaminase activity, […] nm absorbance; settings: as Mg·GTP, 0.5 mM AMP, pH 7.2, 25°C, allosteric
[9] = biological target: T2, Bound AMPD (wood frog skeletal muscle, control frogs); experiment: AMP deaminase activity, glutamate dehydrogenase-coupled, NADH […] nm; settings: as Mg·GTP, 0.5 mM AMP, pH 7.2, 25°C, bound enzyme, allosteric

How did the Km [1] turn out when Nc1ncnc2c1ncn2[C@@H]1O[C@H](COP(=O)(O)O)[C@@H](O)[C@H]1O [AMP] was run?
The Km was 1350 ± 80 µM.

What about the Km [2] of the same compound?
The Km was 460 ± 30 µM.

What about the Km [3] of the same compound?
The Km was 1500 ± 190 µM.

Which results are given for Nc1ncnc2c1ncn2[C@@H]1O[C@H](COP(=O)(O)OP(=O)(O)O)[C@@H](O)[C@H]1O [Mg·ADP]?
EC50 [4]: 1140 ± 100 µM; EC50 [5]: 3750 ± 370 µM; EC50 ([6]; activation constant (half-maximal activation, 2.17-fold), as Mg·ADP): 1120 ± 150 µM

For Nc1ncnc2c1ncn2[C@@H]1O[C@H](COP(=O)(O)OP(=O)(O)OP(=O)(O)O)[C@@H](O)[C@H]1O [Mg·ATP], which EC50 ([6]; activation constant (half-maximal activation, 1.53-fold), as Mg·ATP) is on record?
The EC50 was 1900 ± 30 µM.

Which IC50 [7] does the source give for Nc1nc2c(ncn2[C@@H]2O[C@H](COP(=O)(O)OP(=O)(O)OP(=O)(O)O)[C@@H](O)[C@H]2O)c(=O)[nH]1 [Mg·GTP] here?
The IC50 was 100 ± 10 µM.

And the IC50 [8]?
Its IC50 is 150 ± 20 µM.

What about the IC50 [9] of the same compound?
The IC50 was 80 ± 10 µM.
